Laboratory results taken from patent publication US20240285571A1, “METHODS OF TREATING BONE INFECTIONS” (MICROBION CORPORATION, priority 2020, published 2024).
Converted amounts (≈) assume the structure as drawn. Like-named read-outs stand apart in the source and are kept apart here. Values belong to the compound of their own block, whether it stands above or below them.

Experiments:
F. magna = assay: MIC of baseline clinical isolates (Example 8); format: cell-based; conditions: Finegoldia magna baseline isolates (N′ = 4), central laboratory, mITT
Protocol: (§1) Microbiology was assessed on Day 1 and at the time of any subsequent surgical procedure at the index site. Samples were collected from the infected bone site or involved tissue adjacent to any implant(s), swabs of the deep infection site, and the superficial tissue/wound closure/sinus tract site. […] Parallel sets of samples were analyzed by the local clinical site laboratory to guide patient antibiotic treatment.

Anaerococcus murdochii = assay: MIC of baseline clinical isolates (Example 8); format: cell-based; conditions: Anaerococcus murdochii baseline isolates (N′ = 1), central laboratory, mITT
Protocol: as §1

[1] = test system: Cutibacterium [Propionibacterium] acnes; assay: MIC of baseline clinical isolates (Example 8); format: cell-based; conditions: Cutibacterium (Proprionibacterium) acnes baseline isolates (N′ = 3), central laboratory, mITT
Protocol: as §1

Clostridium sphenoides = assay: MIC of baseline clinical isolates (Example 8); format: cell-based; conditions: Clostridium sphenoides baseline isolates (N′ = 1), central laboratory, mITT
Protocol: as §1

Peptoniphilus gorbachii = assay: MIC of baseline clinical isolates (Example 8); format: cell-based; conditions: Peptoniphilus gorbachii baseline isolates (N′ = 1), central laboratory, mITT
Protocol: as §1

Actinomyces turicensis = assay: MIC of baseline clinical isolates (Example 8); format: cell-based; conditions: Actinomyces turicensis baseline isolates (N′ = 1), central laboratory, mITT
Protocol: as §1

[2] = test system: non-speciated Anaerococcus; assay: MIC of baseline clinical isolates (Example 8); format: cell-based; conditions: Anaerococcus non-speciated baseline isolates (N′ = 1), central laboratory, mITT
Protocol: as §1

[3] = test system: Corynebacterium amycolatum; assay: MIC of baseline clinical isolates (Example 8); format: cell-based; conditions: Corynebacterium amycolatum baseline isolates (N′ = 1), central laboratory, mITT
Protocol: (§2) Microbiology was assessed on Day 1 and at the time of any subsequent surgical procedure at the index site. Samples were collected from the infected bone site or involved tissue adjacent to any implant(s), swabs of the deep infection site, and the superficial tissue/wound closure/sinus tract site. Isolation and identification of aerobic and anerobic bacteria was conducted at a central microbiology laboratory (IHMA, Schaumburg, IL) and susceptibility of the isolates to MBN-101 (BisEDT) and comparator agents was performed per Clinical and Laboratory Standards Institute (CLSI). Parallel sets of samples were analyzed by the local clinical site laboratory to guide patient antibiotic treatment.

Dermabacter hominis = assay: MIC of baseline clinical isolates (Example 8); format: cell-based; conditions: Dermabacter hominis baseline isolates (N′ = 1), central laboratory, mITT
Protocol: as §2

Corynebacterium jeikeium = assay: MIC of baseline clinical isolates (Example 8); format: cell-based; conditions: Corynebacterium jeikeium baseline isolates (N′ = 2), central laboratory, mITT
Protocol: as §2

Streptococcus oralis = assay: MIC of baseline clinical isolates (Example 8); format: cell-based; conditions: Streptococcus oralis baseline isolates (N′ = 1), central laboratory, mITT
Protocol: as §2

[4] = test system: non-speciated Corynebacterium; assay: MIC of baseline clinical isolates (Example 8); format: cell-based; conditions: Corynebacterium non-speciated baseline isolates (N′ = 2), central laboratory, mITT
Protocol: as §2

[5] = test system: Corynebacterium resistens; assay: MIC of baseline clinical isolates (Example 8); format: cell-based; conditions: Corynebacterium resistens baseline isolates (N′ = 1), central laboratory, mITT
Protocol: as §2

S. pneumoniae [6] = assay: Broth microdilution MIC (Example 5); format: cell-based
Protocol: (§3) Test and Comparator Agents: The test agents were stored at room temperature until assayed. […] The stock solutions were allowed to stand for at least 1 hr prior to use to auto-sterilize.
(§4) TestMedia: Test media were prepared and stored in accordance with guidelines from CLSI (4, 6, 7).
(§5) Broth Microdilution MC Testing (Aerobic Bacteria and Yeast): The broth microdilution assay method employed for the susceptibility testing of aerobic bacteria (excluding N. gonorrhoeae which was evaluated by agar dilution) and yeast essentially followed the procedures described by CLSI (3, 4, 7, 8) and employed automated liquid handlers to conduct serial dilutions and liquid transfers. […] These would become the ‘mother plates’ from which ‘daughter’ or test plates would be prepared. The drugs (300 μL at 40× the desired top concentration in the test plates) were dispensed into the appropriate well in Column 1 of the mother plates. The Biomek 2000 was used to make serial two-fold dilutions through Column 11 in the “mother plate”. The wells of Column 12 contained no drug and ultimately served as the organism growth control wells.
(§6) The daughter plates were prepared using the Biomek FX which transferred 5 μL of drug solution from each well of a mother plate to the corresponding well of the correct daughter plate in a single step.
(§7) A standardized inoculum of each organism was prepared per CLSI methods (3, 7). Isolated colonies of each test isolate were picked from the primary plate and a suspension was prepared to equal a 0.5 McFarland turbidity standard. Standardized suspensions were then diluted […] (1:100 for yeast, 1:20 for bacteria). After dilution, the inoculum suspensions were then transferred to compartments of sterile reservoirs divided by length (Beckman Coulter), and the Biomek 2000 was used to inoculate all plates. Daughter plates were placed on the Biomek 2000 in reverse orientation so that plates were inoculated from low to high drug concentration.
(§8) The Biomek 2000 delivered 10 μL of standardized inoculum into each well of the appropriate daughter plate for an additional 1:20 dilution.
(§9) Plates were stacked 4 high, covered with a lid on the top plate, placed into plastic bags, and incubated at 35° C. for approximately 24-48 hr for all yeast isolates and 16-24 hr for aerobic bacteria. Plates were viewed from the bottom using a plate viewer. […] MIC endpoints for the test agents and control compounds were read per CLSI criteria (3, 7).

S. agalactiae = assay: Broth microdilution MIC (Example 5); format: cell-based
Protocol: as §3, §4, §5, §6, §7, §8, §9

S. pyogenes = assay: Broth microdilution MIC (Example 5); format: cell-based
Protocol: as §3, §4, §5, §6, §7, §8, §9

S. pneumoniae [7] = conditions: S. pneumoniae MMX 6837 (ATCC 49619); cited from earlier work
E. faecium = assay: Broth microdilution MIC (Example 5); format: cell-based; conditions: E. faecium MMX 485; VRE vanA
Protocol: as §3, §4, §5, §6, §7, §8, §9

M. abscessus (MABSC) = assay: MIC against CF isolates (Example 7, Table 18); format: cell-based, Mycobacterium abscessus complex; conditions: Mycobacteroides abscessus
S. aureus ATCC 29213 = conditions: per CLSI M100-S24 or provided by Microbion; cited from earlier work
C. difficile = assay: Agar dilution MIC, anaerobes (Example 5); format: cell-based, Clostridium difficile; conditions: Clostridioides difficile, read-out: MIC
B. fragilis = assay: Agar dilution MIC, anaerobes (Example 5); format: cell-based; conditions: Bacteroides fragilis, ATCC25285; B. fragilis MMX 123 (ATCC 25285); QC; read-out: MIC

Compound: CCN1CCN(C(=O)N[C@@H](C(=O)N[C@@H]2C(=O)N3[C@@H]2SC(C)(C)[C@@H]3C(=O)O)c2ccccc2)C(=O)C1=O.C[C@]1(Cn2ccnn2)[C@H](C(=O)O)N2C(=O)C[C@H]2S1(=O)=O [TZP]
- Mean MIC (F. magna): 0.34 µg/mL
- n (% resistant) (F. magna): 0 (0.0) n (%)
- Mean MIC (Anaerococcus murdochii): 0.50 µg/mL
- n (% resistant) (Anaerococcus murdochii): 0 (0.0) n (%)
- Mean MIC [1]: 0.29 µg/mL
- n (% resistant) [1]: 0 (0.0) n (%)
- Mean MIC (Clostridium sphenoides): 16.00 µg/mL
- n (% resistant) (Clostridium sphenoides): 0 (0.0) n (%)
- Mean MIC (Peptoniphilus gorbachii): 0.03 µg/mL
- n (% resistant) (Peptoniphilus gorbachii): 0 (0.0) n (%)
- Mean MIC (Actinomyces turicensis): 1.00 µg/mL
- n (% resistant) (Actinomyces turicensis): 0 (0.0) n (%)
- n (% resistant) [2]: 0 (0.0) n (%)
- Mean MIC [3]: 1.00 µg/mL
- n (% resistant) [3]: 0 (0.0) n (%)
- Mean MIC (Dermabacter hominis): 0.50 µg/mL
- n (% resistant) (Dermabacter hominis): 0 (0.0) n (%)
- Mean MIC (Corynebacterium jeikeium): 1.00 µg/mL
- n (% resistant) (Corynebacterium jeikeium): 0 (0.0) n (%)
- Mean MIC (Streptococcus oralis): 0.06 µg/mL
- n (% resistant) (Streptococcus oralis): 0 (0.0) n (%)
- Mean MIC [4]: 1.00 µg/mL
- n (% resistant) [4]: 0 (0.0) n (%)
- Mean MIC [5]: 1.00 µg/mL
- n (% resistant) [5]: 0 (0.0) n (%)

Compound: Penicillin
- MIC (S. pneumoniae [6]; S. pneumoniae MMX 880, LevR SXTR CCR EryR PenR): 2 µg/mL
- MIC (S. pneumoniae [6]; S. pneumoniae MMX 937, MemR SXTR CCR EryR PenR): 4 µg/mL
- MIC (S. pneumoniae [6]; S. pneumoniae MMX 3959, CCR EryR): 0.12 µg/mL
- MIC (S. pneumoniae [6]; S. pneumoniae MMX 5440, MemR SXTR CCR EryR PenR): 4 µg/mL
- MIC (S. pneumoniae [6]; S. pneumoniae MMX 5445, MemR SXTR CCR EryR PenR): 4 µg/mL
- MIC (S. pneumoniae [6]; S. pneumoniae MMX 6837 (ATCC 49619), QC): 0.25 µg/mL
- MIC (S. pneumoniae [6]; S. pneumoniae MMX 8133, MemR SXTR CCR EryR PenR): 4 µg/mL
- MIC (S. agalactiae; S. agalactiae MMX 3741, ERYR CCR): 0.03 µg/mL
- MIC (S. agalactiae; S. agalactiae MMX 3743, ERYR CCR): 0.06 µg/mL
- MIC (S. agalactiae; S. agalactiae MMX 4077, ERYR CCR): 0.06 µg/mL
- MIC (S. agalactiae; S. agalactiae MMX 4079, ERYR CCR PenR MEMR): 2 µg/mL
- MIC (S. agalactiae; S. agalactiae MMX 4086, ERYR CCR): 0.06 µg/mL
- MIC (S. pyogenes; S. pyogenes MMX 3068, EryR): ≤0.008 µg/mL
- MIC (S. pyogenes; S. pyogenes MMX 3820, ERYR CLIR): ≤0.008 µg/mL
- MIC (S. pyogenes; S. pyogenes MMX 3919, ERYR): ≤0.008 µg/mL
- MIC (S. pyogenes; S. pyogenes MMX 3929, ERYR CCR): ≤0.008 µg/mL
- MIC (S. pyogenes; S. pyogenes MMX 5091, ERYR CCR): ≤0.008 µg/mL
- CLSI QC range of MIC (S. pneumoniae [7]): (0.25-1) μg/mL

Compound: CC[C@H]1OC(=O)[C@H](C)[C@@H](O[C@H]2C[C@@](C)(OC)[C@@H](O)[C@H](C)O2)[C@H](C)[C@@H](O[C@@H]2O[C@H](C)C[C@H](N(C)C)[C@H]2O)[C@](C)(O)C[C@@H](C)C(=O)[C@H](C)[C@@H](O)[C@]1(C)O [Erythromycin]
- MIC (E. faecium): >64 µg/mL
- CLSI QC range of MIC (S. pneumoniae [7]): (0.03-0.12) μg/mL

- MIC (M. abscessus (MABSC); strain AMT0068-40, M abscessus/massiliense complex): 1 µg/mL (≈ 1.34 µM)
- MIC (M. abscessus (MABSC); strain AMT0119-7, M abscessus/massiliense complex): 1 µg/mL (≈ 1.34 µM)
Compound: CC[C@H]1OC(=O)[C@H](C)[C@@H](O[C@H]2C[C@@](C)(OC)[C@@H](O)[C@H](C)O2)[C@H](C)[C@@H](O[C@@H]2O[C@H](C)C[C@H](N(C)C)[C@H]2O)[C@](C)(OC)C[C@@H](C)C(=O)[C@H](C)[C@@H](O)[C@]1(C)O [Clarithromycin, reference compound]
- MIC, acceptable range (S. aureus ATCC 29213): 0.12 to 0.5 µg/mL
- MIC, expected results (S. aureus ATCC 29213): 0.25 µg/mL (≈ 0.334 µM)

Compound: CCC[C@@H]1C[C@@H](C(=O)N[C@@H]([C@H]2O[C@H](SC)[C@H](O)[C@@H](O)[C@H]2O)[C@H](C)Cl)N(C)C1 [Clindamycin]
- MIC (C. difficile; ATCC700057, C. difficile MMX 4381 (ATCC 700057), QC, CCI): 4 µg/mL (≈ 9.41 µM)
- MIC (C. difficile; C. difficile MMX 8272, ribotype 255, CCI): 4 µg/mL (≈ 9.41 µM)
- MIC (C. difficile; C. difficile MMX 8279, ribotype 005, CCR): > 64 µg/mL
- MIC (C. difficile; C. difficile MMX 8281, ribotype 010, CCR): > 64 µg/mL
- MIC (C. difficile; NCTC13307, C. difficile MMX 5681 (NCTC 13307), ribotype 012, CCR): > 64 µg/mL
- MIC (C. difficile; NCTC13336, C. difficile MMX 5680 (NCTC 13336), ribotype 027, CCI METR): 4 µg/mL (≈ 9.41 µM)
- MIC (B. fragilis): 1 µg/mL (≈ 2.35 µM)
- MIC (E. faecium): >32 µg/mL
